Measurements as given in ChEMBL document CHEMBL6153083, “Synthesis, Structural Modification, and Antismall Cell Lung Cancer Activity of 3-Arylisoquinolines with Dual Inhibitory Activity on Topoisomerase I and II” (J Med Chem, 2025).

Tests used:
[1] = Antiproliferative activity against human NCI-H196 cells incubated for 72 hrs; type: functional, cell-based; details: NCI-H196, 72 h
[2] = system: NCI-H446; assay: Antiproliferative activity against human NCI-H446 cells incubated for 72 hrs; type: functional, cell-based; details: NCI-H446, 72 h
[3] = system: NCI-H146; assay: Antiproliferative activity against human NCI-H146 cells incubated for 72 hrs; type: functional, cell-based; details: NCI-H146, 72 h
[4] = system: NCI-H209; assay: Antiproliferative activity against human NCI-H209 cells incubated for 72 hrs; type: functional, cell-based; details: NCI-H209, 72 h
[5] = system: SHP77; assay: Antiproliferative activity against human SHP77 cells incubated for 72 hrs; type: functional, cell-based; details: SHP77, 72 h
[6] = Antiproliferative activity against human BEAS-2B cells incubated for 72 hrs; type: toxicity, cell-based
[7] = system: NCI-H82; assay: Antiproliferative activity against human NCI-H82 cells incubated for 72 hrs; type: functional, cell-based; details: NCI-H82, 72 h
[8] = system: NCI-H1048; assay: Antiproliferative activity against human NCI-H1048 cells incubated for 72 hrs; type: functional, cell-based; details: NCI-H1048, 72 h
[9] = Antiproliferative activity against human L02 cells incubated for 72 hrs; type: toxicity, cell-based

| Compound | IC50 [1] | IC50 [2] | IC50 [3] | IC50 [4] | IC50 [5] | IC50 at 72 h [6] | IC50 [7] | IC50 [8] | IC50 at 72 h [9] |
| --- | --- | --- | --- | --- | --- | --- | --- | --- | --- |
| COC(=O)C1CCN(Cc2cc3c(cc2-c2cc4ccc5c(c4cn2)OCO5)OCO3)CC1 | > 100 µM | 65.6 µM | > 100 µM | > 100 µM | > 100 µM | 77.5 µM | > 100 µM | 60.6 µM | – |
| OCC1CCN(Cc2cc3c(cc2-c2cc4ccc5c(c4cn2)OCO5)OCO3)C1 (configuration not stated) | 36 µM | 68.4 µM | 17.1 µM | 56.6 µM | 32.9 µM | 26.2 µM | 61.5 µM | 34.6 µM | 43.2 µM |
| CC(C)C1CCN(Cc2cc3c(cc2-c2cc4ccc5c(c4cn2)OCO5)OCO3)CC1 | 14.5 µM | 2.65 µM | < 6.25 µM | 6.92 µM | 8.17 µM | > 100 µM | 1.7 µM | 2.21 µM | 18.2 µM |
| CC(C)(C)C1CCN(Cc2cc3c(cc2-c2cc4ccc5c(c4cn2)OCO5)OCO3)CC1 | 7.5 µM | 7.1 µM | 10.1 µM | > 100 µM | 8.55 µM | > 100 µM | 2.96 µM | 2.68 µM | > 100 µM |
| CC1CCCCN1Cc1cc2c(cc1-c1cc3ccc4c(c3cn1)OCO4)OCO2 (configuration not stated) | 37.5 µM | 14.4 µM | 39 µM | 49.6 µM | 40.4 µM | 19.4 µM | 38.6 µM | 16.7 µM | 42.4 µM |
| FC1CN(Cc2cc3c(cc2-c2cc4ccc5c(c4cn2)OCO5)OCO3)C1 | > 100 µM | 49.8 µM | – | > 100 µM | 44.9 µM | 75.6 µM | > 100 µM | 74.1 µM | 59 µM |
| CN1CCCN(Cc2cc3c(cc2-c2cc4ccc5c(c4cn2)OCO5)OCO3)CC1 | 19.8 µM | 10.4 µM | – | > 50 µM | 22.3 µM | > 100 µM | 6.49 µM | 32.1 µM | > 100 µM |
| CC(C)C1CCCCCN1Cc1cc2c(cc1-c1cc3ccc4c(c3cn1)OCO4)OCO2 (configuration not stated) | 17.9 µM | 1.22 µM | – | 18.1 µM | 8.23 µM | 26.5 µM | 1.72 µM | 18.1 µM | 20.5 µM |
| FC1(F)CCCN(Cc2cc3c(cc2-c2cc4ccc5c(c4cn2)OCO5)OCO3)CC1 | 56.4 µM | 39.3 µM | – | 45 µM | 31.3 µM | 24.2 µM | 31.3 µM | 19.1 µM | 36.6 µM |
| c1c(CN2CCCCCC2)c(-c2cc3ccc4c(c3cn2)OCO4)cc2c1OCO2 | 24.3 µM | 15.2 µM | – | 39.5 µM | 18 µM | 12.3 µM | 16.9 µM | 15.4 µM | 14.4 µM |
| c1c(CN2CC3CCC(C2)O3)c(-c2cc3ccc4c(c3cn2)OCO4)cc2c1OCO2 | 31.3 µM | 20.6 µM | > 100 µM | 46.5 µM | 30.8 µM | 57.3 µM | – | – | > 100 µM |
| CC1(F)CN(Cc2cc3c(cc2-c2cc4ccc5c(c4cn2)OCO5)OCO3)C1 | > 100 µM | 38.5 µM | – | > 100 µM | > 100 µM | > 100 µM | > 100 µM | > 100 µM | > 100 µM |
| CC1CCN1Cc1cc2c(cc1-c1cc3ccc4c(c3cn1)OCO4)OCO2 (configuration not stated) | 46.3 µM | 48.8 µM | – | 48.8 µM | 42.6 µM | 27.7 µM | 56.2 µM | 42.3 µM | 33.8 µM |
